From patent publication US20050101595A1, “N-containing cycloalkyl-substituted amino-thiazole derivatives and pharmaceutical compositions for inhibiting cell proliferation and methods for their use” (PFIZER INC., priority 2003, published 2005)

Key:
CDK2/Cyclin A = CDK2/Cyclin A (Homo sapiens, UniProt P24941); assay: Inhibition of CDK2/Cyclin A Retinoblastoma Kinase Activity; type: biochemical; details: at 0.03 μM
How it was run: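 Radiometric filter-binding readout of phosphate transfer to an Rb substrate fragment by purified CDK2/truncated cyclin A at 10 or 19 nM. Run at pH 7.4 with 25 μM ATP, 30 °C, 60–75 min, linear rates; background without enzyme subtracted, Ki from competitive-inhibition models.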

[1] = target: human CDK4 and genetically truncated (1-264) cyclin D3 (Homo sapiens, UniProt P11802); assay: Inhibition of CDK4/Cyclin D Retinoblastoma Kinase Activity; type: biochemical; details: at 0.03 μM
How it was run: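 Apparent Ki values come from competitive or competitive tight-binding inhibition fits of background-corrected 32P/33P incorporation into His-tagged Rb fragment (386-928), captured on nitrocellulose. Reaction: 5 nM insect-cell-expressed human CDK4 with cyclin D3 (1-264), 25 μM ATP, pH 7.4 HEPES, 2% DMSO, 30° C., 20 min, extended to 60 min for tight-binding inhibitors.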

HCT-116 cell line = assay: Inhibition of cell growth, tetrazolium salt (MTT) assay; type: cell-based; details: HCT-116 cells
How it was run: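 HCT-116 cells in McCoy's 5A medium received compound 4 h after plating (0.5% v/v DMSO) and were incubated three to five days at 37° C, 5% CO2. MTT (0.2 mg/mL final) then added for 4 h; DMSO-solubilized formazan read at 540 nm against 0.5% DMSO-treated controls.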

Chain of human CDK4 and genetically truncated (1-264) cyclin D3 (P11802 whole entry, the tested form may be a part): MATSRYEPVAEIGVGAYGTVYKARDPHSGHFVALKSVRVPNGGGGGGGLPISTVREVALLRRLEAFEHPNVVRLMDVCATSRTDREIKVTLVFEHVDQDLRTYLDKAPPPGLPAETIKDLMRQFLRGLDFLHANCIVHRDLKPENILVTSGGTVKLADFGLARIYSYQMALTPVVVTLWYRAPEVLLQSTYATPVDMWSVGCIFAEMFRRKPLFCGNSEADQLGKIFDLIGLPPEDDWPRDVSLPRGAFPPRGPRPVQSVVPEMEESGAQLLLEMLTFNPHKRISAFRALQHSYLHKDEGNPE
Chain of human CDK4 and genetically truncated (1-264) cyclin D3 (P30281 1-264 partner): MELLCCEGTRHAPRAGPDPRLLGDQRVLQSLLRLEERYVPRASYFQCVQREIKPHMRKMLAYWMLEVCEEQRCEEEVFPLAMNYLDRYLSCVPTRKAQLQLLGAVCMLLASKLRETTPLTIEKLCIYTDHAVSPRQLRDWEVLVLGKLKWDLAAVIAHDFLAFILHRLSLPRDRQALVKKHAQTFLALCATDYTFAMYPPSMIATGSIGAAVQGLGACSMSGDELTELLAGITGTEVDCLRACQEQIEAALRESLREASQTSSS

| CDK2 % Inhibition at 0.03 μM (CDK2/Cyclin A) | CDK4 % Inhibition at 0.03 μM [1] | Compound | HCT-116 % Inhibition at 0.1 μM (HCT-116 cell line) | HCT-116 5 Inhibition at 0.25 μM (HCT-116 cell line) |
| --- | --- | --- | --- | --- |
| 15% | 39% | Nc1nc(NC2CCN(C(=O)CCC3CCCCC3)CC2)sc1C(=O)c1c(F)cccc1F [Example R101] | 7% | 45 |
| 18% | 34% | Nc1nc(NC2CCN(C(=O)CCCC3CCCCC3)CC2)sc1C(=O)c1c(F)cccc1F [Example R102] | 0% | 43 |
| 4% | 18% | Nc1nc(NC2CCN(C(=O)c3ccccc3)CC2)sc1C(=O)c1c(F)cccc1F [Example R103] | 0% | 45 |
| 5% | −8% | Nc1nc(NC2CCN(C(=O)c3ccccc3F)CC2)sc1C(=O)c1c(F)cccc1F [Example R104] | 0% | 38 |
| 8% | 9% | Nc1nc(NC2CCN(C(=O)c3c(F)cccc3F)CC2)sc1C(=O)c1c(F)cccc1F [Example R105] | 0% | 44 |
| 2% | 19% | Nc1nc(NC2CCN(C(=O)c3cccc(Cl)c3Cl)CC2)sc1C(=O)c1c(F)cccc1F [Example R106] | 2% | 72 |
| 44% | 63% | Nc1nc(NC2CCN(C(=O)c3ccc(Cl)cc3Cl)CC2)sc1C(=O)c1c(F)cccc1F [Example R107] | 8% | 48 |
| 56% | 72% | Nc1nc(NC2CCN(C(=O)c3cc(Cl)ccc3Cl)CC2)sc1C(=O)c1c(F)cccc1F [Example R108] | 5% | 58 |
| 21% | 34% | Nc1nc(NC2CCN(C(=O)c3c(F)cccc3Cl)CC2)sc1C(=O)c1c(F)cccc1F [Example R109] | 14% | 47 |
| 24% | 30% | Nc1nc(NC2CCN(C(=O)c3c(Cl)cccc3Cl)CC2)sc1C(=O)c1c(F)cccc1F [Example R110] | 3% | 48 |
| 11% | 25% | CC(=O)Nc1ccccc1C(=O)N1CCC(Nc2nc(N)c(C(=O)c3c(F)cccc3F)s2)CC1 [Example R111] | 4% | 52 |

Further lines, the compound ahead of its results:

| Compound | CDK2 % Inhibition at 0.03 μM (CDK2/Cyclin A) | CDK4 % Inhibition at 0.03 μM [1] | HCT-116 % Inhibition at 0.1 μM (HCT-116 cell line) | HCT-116 5 Inhibition at 0.25 μM (HCT-116 cell line) |
| --- | --- | --- | --- | --- |
| Cc1ccc(S(=O)(=O)N[C@@H](Cc2ccccc2)C(=O)N2CCC(Nc3nc(N)c(C(=O)c4c(F)cccc4F)s3)CC2)cc1 [Example R75] | 26% | 13% | 0% | 41 |
| COC(=O)CCCCCCCCC(=O)N1CCC(Nc2nc(N)c(C(=O)c3c(F)cccc3F)s2)CC1 [Example R76] | 53% | 64% | 0% | 38 |
| Cc1oc(-c2ccccc2)cc1C(=O)N1CCC(Nc2nc(N)c(C(=O)c3c(F)cccc3F)s2)CC1 [Example R77] | 19% | 15% | 0% | 44 |
| Nc1nc(NC2CCN(C(=O)CC3CCCC3)CC2)sc1C(=O)c1c(F)cccc1F [Example R78] | 20% | 19% | 0% | 47 |
| CN(C)c1ccc(C(=O)N2CCC(Nc3nc(N)c(C(=O)c4c(F)cccc4F)s3)CC2)cc1 [Example R79] | 14% | 16% | 0% | 47 |
| Nc1nc(NC2CCN(C(=O)N3CCOCC3)CC2)sc1C(=O)c1c(F)cccc1F [Example R80] | 7% | 37% | 0% | 47 |
| Nc1nc(NC2CCN(C(=O)N3CCCC3)CC2)sc1C(=O)c1c(F)cccc1F [Example R81] | −10% | 29% | 13% | 43 |
| COCCOC(=O)N1CCC(Nc2nc(N)c(C(=O)c3c(F)cccc3F)s2)CC1 [Example R82] | −11% | 17% | 0% | 50 |
| CCN1CCN(C(=O)N2CCC(Nc3nc(N)c(C(=O)c4c(F)cccc4F)s3)CC2)C(=O)C1=O [Example R83] | 21% | 52% | 0% | 45 |
| CC(C)OC(=O)N1CCC(Nc2nc(N)c(C(=O)c3c(F)cccc3F)s2)CC1 [Example R84] | 4% | 21% | 0% | 41 |
| Nc1nc(NC2CCN(C(=S)Oc3ccc(F)cc3)CC2)sc1C(=O)c1c(F)cccc1F [Example R85] | 90% | 81% | 0% | 47 |
| CC1CCC(C(C)C)C(OC(=O)N2CCC(Nc3nc(N)c(C(=O)c4c(F)cccc4F)s3)CC2)C1 (stereo not drawn) [Example R86] | 9% | 9% | 0% | 34 |
| Nc1nc(NC2CCN(C(=O)OC3CCCC3)CC2)sc1C(=O)c1c(F)cccc1F [Example R87] | 17% | 28% | 0% | 36 |
| CC(C)(C)COC(=O)N1CCC(Nc2nc(N)c(C(=O)c3c(F)cccc3F)s2)CC1 [Example R88] | 6% | −3% | 0% | 42 |
| Nc1nc(NC2CCN(C(=O)C3CC3)CC2)sc1C(=O)c1c(F)cccc1F [Example R89] | 3% | 5% | 0% | 46 |
| Nc1nc(NC2CCN(C(=O)C3(c4ccccc4)CC3)CC2)sc1C(=O)c1c(F)cccc1F [Example R90] | −2% | −6% | 0% | 19 |
| Nc1nc(NC2CCN(C(=O)C3(c4ccc(Cl)cc4)CC3)CC2)sc1C(=O)c1c(F)cccc1F [Example R91] | −1% | 14% | 2% | 41 |
| CC1CC1C(=O)N1CCC(Nc2nc(N)c(C(=O)c3c(F)cccc3F)s2)CC1 (stereo not drawn) [Example R93] | −10% | −1% | 0% | 42 |
| Nc1nc(NC2CCN(C(=O)C3Cc4ccccc43)CC2)sc1C(=O)c1c(F)cccc1F (stereo not drawn) [Example R94] | 10% | −5% | 0% | 42 |
| Nc1nc(NC2CCN(C(=O)C3(c4ccccc4)CCCC3)CC2)sc1C(=O)c1c(F)cccc1F [Example R95] | −13% | −27% | 0% | 38 |
| Nc1nc(NC2CCN(C(=O)CC3CCCC3)CC2)sc1C(=O)c1c(F)cccc1F [Example R96] | −20% | −18% | 2% | 36 |
| Nc1nc(NC2CCN(C(=O)CCC3CCCC3)CC2)sc1C(=O)c1c(F)cccc1F [Example R97] | 13% | 17% | 0% | 39 |
| Nc1nc(NC2CCN(C(=O)CC3C=CCC3)CC2)sc1C(=O)c1c(F)cccc1F (stereo not drawn) [Example R98] | 8% | 11% | 0% | 44 |
| CC1(C(=O)N2CCC(Nc3nc(N)c(C(=O)c4c(F)cccc4F)s3)CC2)CCCCC1 [Example R99] | −5% | −4% | 5% | 49 |
| Nc1nc(NC2CCN(C(=O)CC3CCCCC3)CC2)sc1C(=O)c1c(F)cccc1F [Example R100] | −5% | 10% | 0% | 49 |
